Measured values from patent EP4725957A1, “GROUP OF CYCLIC ALKALINE LIPOPEPTIDE COMPOUNDS, AND PREPARATION METHOD THEREFOR AND USE THEREOF” (Institute of Medicinal Biotechnology, Chinese Academy of …, priority 2023, dated 2024).
Values after ≈ are worked out from the molar mass of the structure shown. Bridge positions count the residues as written; N and C are the ends. Square brackets hold non-standard residues; d marks the D form. Peptide text beside a SMILES is read from it. * marks the point of attachment. Heptanoyl(6-Me) = CC(C)CCCCC(=O)*; Dab = NCC[C@H](N)C(=O)O; Dap = NC[C@H](N)C(=O)O

How the values were obtained:
[1] = Nephrotoxicity assay: in vitro cytotoxicity of HK-2 cells by CCK-8 assay; assay type: cell-based; conditions: human, HK-2 cells (human renal), 72 h incubation with drug-containing medium
In short: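 HK-2 human renal cells in RPMI-1640 with 10% FBS were exposed to compounds at final 12.5–500 µg/mL for 72 h, then CCK-8 for 3 h and OD450 read. Viability was normalised to drug-free wells; IC50 came from logarithmic regression over three repeats, with polymyxin B as positive drug.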

[2] = test system: Pseudomonas aeruginosa PAE19-3; assay type: cell-based; conditions: Pseudomonas aeruginosa PAE19-3
In short: (§1)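 Broth microdilution per CLSI in Mueller-Hinton broth. Compounds were tested at final concentrations of 64 to 0.03 mg/L (two-fold steps) against an inoculum of (2-4) × 10^5 CFU/mL, with incubation at 35-37°C for 16-20 h to give the MIC.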

[3] = test system: Acinetobacter baumannii NCTC 13304 (OXA-27); assay type: cell-based; conditions: Acinetobacter baumannii NCTC 13304 (OXA-27)
In short: as §1

[4] = test system: Escherichia coli ATCC BAA-2523; assay type: cell-based; conditions: Escherichia coli ATCC BAA-2523
In short: as §1

[5] = test system: Klebsiella pneumoniae KPN+19-15; assay type: cell-based; conditions: Klebsiella pneumoniae KPN 19-15
In short: as §1

[6] = test system: Klebsiella pneumoniae ATCC BAA-1705 (KPC); assay type: cell-based; conditions: Klebsiella pneumoniae ATCC BAA-1705 (KPC)
In short: as §1

[7] = test system: Pseudomonas aeruginosa ATCC 27853; assay type: cell-based; conditions: Pseudomonas aeruginosa ATCC27853
In short: as §1

[8] = test system: Escherichia coli ATCC BAA-2340 (KPC); assay type: cell-based; conditions: Escherichia coli ATCC BAA-2340 (KPC)
In short: as §1

[9] = test system: Acinetobacter baumannii ABA19-1; assay type: cell-based; conditions: Acinetobacter baumannii ABA19-1
In short: as §1

Healthy ICR mice = test: Acute toxicity test in healthy mice, single tail vein injection; assay type: in vivo; conditions: within 7 days
Protocol: (§2) Healthy ICR mice aged 5-6 weeks were selected, with 5-10 mice in each group, and administered via a single tail vein injection at an administration volume of 20 mL/kg. In the preliminary test, the drug dose concentrations that caused 100% mortality and no mortality in mice after a single intravenous injection were determined. Based on this dose range, 4-5 dose groups were set up, with a dose ratio of 1:0.5 to 1:0.8 between adjacent groups. The mortality of animals within 7 days after administration was recorded. According to the mortality rate of experimental animals in each group, the median lethal dose (LD50) of the test samples, i.e., the dose causing 50% mortality of the tested animals, was calculated by the Bliss method.

[10] = as above; assay type: in vivo; conditions: mouse, in vivo, iv; ICR mice, single tail vein injection, Bliss method
Protocol: as §2

CC(C)CCCCC(=O)N[C@@H](CCN)C(=O)N[C@H](C(=O)N[C@@H](CN)C(=O)N[C@H]1CCNC(=O)[C@H]([C@@H](C)O)NC(=O)[C@H](CCN)NC(=O)[C@H](CCN)NC(=O)[C@H]([C@@H](C)O)NC(=O)[C@@H](Cc2ccccc2)NC(=O)[C@H](CCN)NC1=O)[C@@H](C)O [Compound 7, 6-methylheptanoyl-Dab-Thr-Dap-ring(4-10)[Dab-Dab-D-Phe-Thr-Dab-Dab-Thr]] ({Heptanoyl(6-Me)}-[Dab]T[Dap][Dab][Dab][dF]T[Dab][Dab]T; lactam 4-C)
IC50 at 72 h [1]: > 500 µg/mL
MIC [2]: 0.125 µg/mL (≈ 0.107 µM)
MIC [3]: ≤0.03 µg/mL
MIC [4]: ≤0.03 µg/mL
MIC [5]: ≤0.03 µg/mL
MIC [6]: ≤0.03 µg/mL
MIC [7]: ≤0.03 µg/mL
MIC [8]: ≤0.03 µg/mL
MIC [9]: ≤0.03 µg/mL
mortality rate (Healthy ICR mice; single tail vein injection 15.36 mg/kg): 0%
mortality rate (Healthy ICR mice; single tail vein injection 19.2 mg/kg): 12.5%
mortality rate (Healthy ICR mice; single tail vein injection 24 mg/kg): 25%
mortality rate (Healthy ICR mice; single tail vein injection 30 mg/kg): 100%
LD50 at 168 h [10]: 24.4 mg/kg
